Assay results taken from paper PMC6136576, “Ubiquitin-Mimicking Peptides Transfer Differentiates by E1 and E2 Enzymes” (BioMed Research International, 2018).
Entries after “also recorded” stand apart in the source; their conditions may differ. Marks after values point to notes of the source that are not given here.

Columns and labels:
E2 and E3 = conditions: cited from earlier work
Ube1 = molecular target: T1, Ube1 (Homo sapiens, UniProt P22314); assay: ATP-PPi exchange assay of Ube1 activation; assay type: biochemical; conditions: for Km / kcat / kcat/Km: ATP-PPi exchange catalyzed by Ube1, 0.05 uM Ube1, peptides 10-1000 uM, n=3; for Km: 50 mM Tris-Cl pH7.5, 10 mM MgCl2, 1 mM ATP, 1 mM [32P]pyrophosphate, room temperature; for Km / kcat: Michaelis-Menten fit; for kcat / kcat/Km: pH7.5, room temperature; for reactivity of free 7mer peptides with Ube1 (ATP-PPi exchange rate): free short peptides, Figure 1, n=3
T1 sequence (P22314 1-1058): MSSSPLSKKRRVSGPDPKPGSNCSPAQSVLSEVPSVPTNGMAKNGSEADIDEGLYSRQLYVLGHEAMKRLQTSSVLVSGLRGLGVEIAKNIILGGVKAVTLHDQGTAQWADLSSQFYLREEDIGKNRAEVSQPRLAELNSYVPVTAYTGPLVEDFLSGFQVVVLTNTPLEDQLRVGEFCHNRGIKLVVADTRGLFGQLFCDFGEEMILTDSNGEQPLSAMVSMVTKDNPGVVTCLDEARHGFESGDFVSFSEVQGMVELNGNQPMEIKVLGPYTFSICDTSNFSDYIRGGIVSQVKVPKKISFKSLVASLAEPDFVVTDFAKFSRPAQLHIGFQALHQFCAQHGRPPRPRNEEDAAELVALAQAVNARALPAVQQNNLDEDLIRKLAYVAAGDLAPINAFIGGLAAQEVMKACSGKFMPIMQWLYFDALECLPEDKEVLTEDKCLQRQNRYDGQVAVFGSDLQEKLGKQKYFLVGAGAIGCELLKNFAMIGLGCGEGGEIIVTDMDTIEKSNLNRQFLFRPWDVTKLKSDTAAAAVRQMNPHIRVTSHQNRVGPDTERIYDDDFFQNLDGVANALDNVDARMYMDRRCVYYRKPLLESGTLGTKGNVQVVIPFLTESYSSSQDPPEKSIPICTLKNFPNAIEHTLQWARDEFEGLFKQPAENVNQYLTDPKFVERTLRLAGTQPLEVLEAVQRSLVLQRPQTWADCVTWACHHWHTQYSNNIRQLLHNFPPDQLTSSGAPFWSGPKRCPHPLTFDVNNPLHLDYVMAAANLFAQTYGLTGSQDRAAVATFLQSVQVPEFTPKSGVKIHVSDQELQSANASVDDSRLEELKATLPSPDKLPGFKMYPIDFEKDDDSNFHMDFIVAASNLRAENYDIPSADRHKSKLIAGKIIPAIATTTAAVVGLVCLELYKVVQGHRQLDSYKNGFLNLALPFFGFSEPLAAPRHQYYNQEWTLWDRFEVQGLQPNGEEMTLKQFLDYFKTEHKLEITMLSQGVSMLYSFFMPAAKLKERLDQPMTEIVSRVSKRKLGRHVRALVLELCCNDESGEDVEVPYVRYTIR
Experimental: Initial velocity of Ube1-activated peptides either in the free state or on different frames was followed by the ATP-PPi exchange assay. 50 uL reactions were set up containing varying concentrations of peptides, 0.05 uM Ube1, 50 mM Tris-Cl, pH7.5, 10 mM MgCl2, and 1 mM ATP. The reactions were initiated by adding of 1 mM [^32P]pyrophosphate (4.6 Ci/mol). The reactions were incubated at room temperature and quenched at various time points by adding of 0.5 mL of a suspension of activated charcoal (1.6 % (w/v) charcoal, 0.1 M tetrasodium pyrophosphate, and 0.35 M perchloric acid) to each of the reactions. The charcoal was pelleted by centrifugation and each charcoal pellet was washed three times with 1 ml 2 % trichloroacetic acid. Finally the charcoal pellet was resuspended in 0.5 ml water and the suspension was added to 3.5 mL Ultima Gold LSC-cocktail (PerkinElmer). The radioactivity bound to charcoal was determined by liquid scintillation counting. To measure the kinetics of the peptides activation by Ube1, initial velocities of ATP-PPi exchange were determined with concentrations of peptides varying from 10 uM to 1000 uM. The kinetic data were fitted to the Michaelis-Menten equation with the data analysis software Origin.

Substance	transfer of free peptides to E2 and E3 (E2 and E3)	Km (Ube1)	kcat (Ube1)	kcat/Km (Ube1)	reactivity of free 7mer peptides with Ube1 (ATP-PPi exchange rate) (Ube1)
VQRYWGG [P3, previously reported short peptide VQRYWGG, positive control, reference compound]	could be transferred to E2 and E3	476 ± 163 µM	6.68 ± 0.77 min⁻¹	0.014 µM/min	showed significant activity with Ube1
ALKERGG [C3, heptamer peptide ALKERGG from Human splicing factor 3A subunit 1 isoform 1]					neither C8, containing Arg but only one Gly, nor C3, which possesses the C-terminal Gly-Gly but with a homologous replacement of Arg to Lys, showed any reactivity toward Ube1
VLRQLGG [C2, heptamer peptide VLRQLGG from Drosophila homologue of C1orf55]		611 ± 23.1 µM	3.73±0.87^b min^−1	6.10 x10^−3^b μM min^−1	displayed affinity with Ube1 with a similar level of efficiency as P3 and P4
IPRDRVG [C8, heptamer peptide IPRDRVG from Ubiquitin-fold modifier 1 (Homo sapiens)]					neither C8, containing Arg but only one Gly, nor C3, which possesses the C-terminal Gly-Gly but with a homologous replacement of Arg to Lys, showed any reactivity toward Ube1
VLRLRGG [P1, reference compound]				5.24e-05 µM/min	could not be conjugated to Ube1
EPRLCGG [C1, heptamer peptide EPRLCGG from the motif of Human C1orf55]		651 ± 49.3 µM	2.29±0.59^a min^−1	3.52 x10^−3^a μM min^−1	displayed affinity with Ube1 with a similar level of efficiency as P3 and P4
VYRFYGG [P4, previously reported short peptide VYRFYGG, positive control, reference compound]	could be transferred to E2 and E3	251 ± 55.6 µM	13.98 ± 2.08 min⁻¹	0.0557 µM/min	showed significant activity with Ube1
AGRMLGG [C7, heptamer peptide AGRMLGG from Ubiquitin-like protein fubi and ribosomal protein S30 precursor]		543 ± 122 µM	5.54±1.37^c min^−1	1.01 x10^−2^c μM min^−1	displayed affinity with Ube1 with a similar level of efficiency as P3 and P4; also recorded: highest activity of the three peptides identified in this study
